Laboratory results reported in patent US9657013B2, “Inhibitors of hepatitis B virus covalently closed circular DNA formation and their method of use” (priority 2012, dated 2017).

Key:
[1] = system: HBV cccDNA; assay: cccDNA inhibition assay (Southern blot of Hirt DNA); assay type: cell-based, hepatitis B virus; settings: for inhibition at 1 µM / inhibition at 3 µM / inhibition at 10 µM / inhibition at 0.3 µM / inhibition at 30 µM: Hepatitis B virus, read-out: cccDNA inhibition % Reduction; for inhibition at 0.3 µM: Concentration 0.3 μM; for inhibition at 30 µM: Concentration 30 μM
Procedure: Cell cultures: HepG2.2.15 cells were maintained in DMEM/F12 medium (Mediatech, Manassas, Va.) supplemented with 10% fetal bovine serum, 100 U/ml penicillin and 100 μg/ml streptomycin, plus 400 μg/ml G418. Tetracycline inducible HBV producer cells, specifically HepDE19 and HepDES19 cells, were maintained in the same way as HepG2.2.15, but with the addition of 1 μg/ml tetracycline (Guo, H., D. Jiang, T. Zhou, A. Cuconati, T. M. Block, and J. T. Guo. 2007). To initiate HBV replication and cccDNA formation in HepDE19 and HepDES19 cells, tetracycline was withdrawn from the culture medium and the cells were cultured for the indicated time period.
Viral nucleic acid analysis: Total cellular RNA was extracted with TRIzol reagent (Invitrogen, Grand Island, N.Y.) by following manufacturer's directions. Ten microgram of total cellular RNA was resolved in 1.5% agarose gel containing 2.2 M formaldehyde and transferred onto Hybond-XL membrane (GE Healthcare, Piscataway, N.J.) in 20×SSC buffer. Intracellular hepadnaviral core DNA and cccDNA (Hirt DNA) were extracted as described previously (Guo, H., D. Jiang, T. Zhou, A. Cuconati, T. M. Block, and J. T. Guo. 2007. Guo, H., D. Jiang, T. Zhou, A. Cuconati, T. M. Block, and J. T. Guo. 2007. Guo, H., R. Mao, T. M. Block, and J. T. Guo. 2010. Guo, H., W. S. Mason, C. E. Aldrich, J. R. Saputelli, D. S. Miller, A. R. Jilbert, and J. E. Newbold. 2005). Half of the DNA samples recovered from one well of a 6-well-plate were resolved by electrophoresis into a 1.2% agarose gel and blotted onto Hybond-XL membrane. Membranes were probed with either an α-^32P-UTP (800 Ci/mmol, Perkin Elmer) labeled hepadnaviral minus (detecting DNA) or plus strand (detecting RNA) specific full-length riboprobe and exposed to a phosphorimager screen (Fuji Film, Tokyo, Japan). Hybridization signals were visualized by Typhoon FLA-7000 (GE Healthcare) and quantified with ImageQuantTL software (GE Healthcare). […]
Identification of compounds that inhibits cccDNA accumulation in HepDES19 cells: Compounds were tested on HepDES19 cells, which have a higher level of cccDNA production than HepDE19 cells (Guo, H., D. Jiang, T. Zhou, A. Cuconati, T. M. Block, and J. T. Guo. 2007). Briefly, after withdrawal of tetracycline, HepDES19 cells were left untreated, or were treated with compound at serial concentrations; tetracycline-free media was changed every other day with fresh compound supplementation. The concentration of DMSO in all experimental groups was normalized at 0.1%. The cells were harvested at day 12, viral RNA (top panel), core DNA (middle panel), and Hirt DNA (DP-rcDNA and cccDNA) (bottom panels) were extracted and analyzed by Northern blot and Southern blot, respectively. Shorter exposure of the Hirt DNA blot was used for the quantitative determination of DP-rcDNA signals. […] The reduction between DP-rcDNA and cccDNA was proportional compared with untreated control. […] Liu, C. P. Hu, and C. Chang. 2005. Guo, H., T. Zhou, D. Jiang, A. Cuconati, G. H. Xiao, T. M. Block, and J. T. Guo. 2007. Zhou, T., H. Guo, J. T. Guo, A. Cuconati, A. Mehta, and T. M. Block. 2006).

[2] = cytotoxicity assay (MTT, CC50); assay type: cell-based; settings: human, HepDE19 cells
Procedure: (§1) Cell plates were then incubated with compound dilutions and controls as described above, and addition of 3-[4,5-dimethylthiazol-2-yl]-2,5-diphenyltetrazolium bromide (MTT, Sigma-Aldrich) was added to a final concentration of 0.5 mg/ml (Mosmann, T. 1983). Plates were again incubated at 37° C. for 4 hrs, after which 10% SDS/0.01N HCl was added to each well in a volume equal to the medium (100 μl), followed by overnight incubation. Absorbance was read in the Rainbow spectrophotometer (Tecan US Inc., Durham, N.C.) at 570 nm (reference wavelength of 630 nm), and analyzed with XLfit 4.0 as described above.

[3] = system: HepDE19 cells; assay: cytotoxicity assay (MTT, CC50); assay type: cell-based
Procedure: as §1

| Structure (SMILES) | inhibition at 3 µM ([1]; Concentration 3 μM) | inhibition at 10 µM ([1]; Concentration 10 μM) | CC50 [2] | inhibition at 30 µM [1] | other results |
| --- | --- | --- | --- | --- | --- |
| O=C(NCc1ccncc1)C1CCCN1S(=O)(=O)c1ccccc1 (stereo not drawn) [IHVR-13108] | 70% | 50% | > 50 µM | – | inhibition at 1 µM ([1]; Concentration 1 μM): 10% |
| CN(Cc1ccccc1)S(=O)(=O)c1ccc(C(=O)Nc2ccc3ncsc3c2)cc1 [IHVR-13004] | 50% | – | 34.1 µM | – | inhibition at 0.3 µM [1]: 0%; inhibition at 1 µM ([1]; Concentration 1 μM): 0% |
| O=C(CN(c1cc(C(F)(F)F)ccc1F)S(=O)(=O)c1ccccc1)NCc1ccncc1 [CCC-1022-3] | 50% | 75% | > 50 µM | – | inhibition at 1 µM ([1]; Concentration 1 μM): 20% |
| O=C(CN(c1cc(C(F)(F)F)ccc1Cl)S(=O)(=O)c1ccc(C(F)(F)F)cc1)NCc1ccncc1 [CCC-Lu25-42] | 90% | 95% | > 50 µM | – | inhibition at 1 µM ([1]; Concentration 1 μM): 20% |
| O=C(CN(c1cc(C(F)(F)F)ccc1Cl)S(=O)(=O)c1ccccc1)NCc1ccncc1 [IHVR-13106] | – | – | – | – | cccDNA inhibition % Reduction ([1]; Concentration 1 μM, 1 µM): 0%; cccDNA inhibition % Reduction ([1]; Concentration 3 μM, 3 µM): 70%; cccDNA inhibition % Reduction ([1]; Concentration 10 μM, 10 µM): 80%; CC50 [3]: > 50 µM |
| CN1CCN(c2cccc(CNC(=O)CN(c3cc(C(F)(F)F)ccc3Cl)S(=O)(=O)c3ccccc3)c2)CC1 [IHVR-29023] | 30% | – | 38.7 µM | – | – |
| Cc1ccc(S(=O)(=O)N(CC(=O)NCc2ccncc2)c2cc(C(F)(F)F)ccc2Cl)cc1 [CCC-Lu25-38] | 95% | 95% | > 50 µM | 95% | – |
| CC(C)(C)CC(=O)NCCNC(=O)CN(c1cc(C(F)(F)F)ccc1F)S(=O)(=O)c1ccccc1 [CCC-Lu25-56] | 70% | – | 28.4 µM | – | – |
| O=C(CN(c1cc(Cl)ccc1F)S(=O)(=O)c1ccccc1)NCc1ccncc1 [CCC-Lu25-41] | 10% | 30% | > 50 µM | 40% | – |
| COc1ccc(S(=O)(=O)N(CC(=O)NCc2ccncc2)c2cc(C(F)(F)F)ccc2Cl)cc1 [CCC-Lu25-39] | 95% | 95% | 49.2 µM | 95% | – |
| CN1CCC(CNC(=O)CN(c2cc(C(F)(F)F)ccc2Cl)S(=O)(=O)c2ccccc2)CC1 [CCC-Lu25-61-1] | 30% | – | > 50 µM | – | – |
| O=C(CN(c1cc(C(F)(F)F)ccc1Cl)S(=O)(=O)c1ccc(Cl)cc1)NCc1ccncc1 [CCC-Lu25-32] | 95% | 95% | > 50 µM | 95% | – |
| O=C(CN(c1cc(C(F)(F)F)ccc1Cl)S(=O)(=O)c1ccccc1)NCc1ccncn1 [CCC-Lu25-53] | 70% | – | > 50 µM | – | – |
| O=C(CN(c1cc(C(F)(F)F)ccc1Cl)S(=O)(=O)c1ccc(F)cc1)NCc1ccncc1 [CCC-Lu25-20] | 20% | 60% | > 50 µM | 70% | – |
| CC(C)(C)OC(=O)N1CCC(CNC(=O)CN(c2cc(C(F)(F)F)ccc2Cl)S(=O)(=O)c2ccccc2)CC1 [CCC-Lu25-55] | 95% | – | 19.1 µM | – | – |
| O=C(CN(c1cc(C(F)(F)F)ccc1Cl)S(=O)(=O)c1ccccc1)NCc1cccnc1 [CCC-Lu25-51] | 80% | – | > 50 µM | – | – |
| O=C(CN(c1cc(C(F)(F)F)ccc1Cl)S(=O)(=O)c1ccccc1)NCc1cncnc1 [CCC-Lu25-52] | 80% | – | > 50 µM | – | – |
| C[N+]1(C)CCC(CNC(=O)CN(c2cc(C(F)(F)F)ccc2Cl)S(=O)(=O)c2ccccc2)CC1 [CCC-Lu25-61-2] | 30% | – | > 50 µM | – | – |
| CN(Cc1ccccc1)S(=O)(=O)c1ccc(C(=O)NCc2ccncc2)cc1 [IHVR-13009] | 15% | 15% | > 50 µM | 30% | – |
| Cc1cc2cc(NC(=O)c3ccc(S(=O)(=O)N(C)Cc4ccccc4)cc3)ccc2[nH]1 [IHVR-13003-1] | 3% | 5% | > 50 µM | 10% | – |
| Cc1nc2cc(NC(=O)CN(c3cc(C(F)(F)F)ccc3Cl)S(=O)(=O)c3ccccc3)ccc2s1 [IHVR-13102] | 30% | 80% | > 50 µM | 30% | – |
| O=C(CN(c1cc(C(F)(F)F)ccc1Cl)S(=O)(=O)c1ccccc1)N1CCc2cnccc2C1 [CCC-Lu25-54] | 50% | – | > 50 µM | – | – |
| Cc1nc2ccc(NC(=O)c3ccc(S(=O)(=O)N(C)Cc4ccccc4)cc3)cc2s1 [IHVR-13006] | 50% | – | 5.9 µM | – | inhibition at 0.3 µM [1]: 2%; inhibition at 1 µM ([1]; Concentration 1 μM): 50% |
| O=C(CN(c1cc(C(F)(F)F)ccc1Cl)S(=O)(=O)c1ccccc1)NCc1ccncc1 [CCC-Lu25-22] | – | 70% | > 50 µM | 70% | cccDNA inhibition % Reduction ([1]; Concentration 3 μM, 3 µM): 40% |
| O=C(CN(c1cc(C(F)(F)F)ccc1Cl)S(=O)(=O)c1ccc(C(F)(F)F)cc1Cl)NCc1ccncc1 [CCC-Lu25-50] | 95% | – | 30.2 µM | – | – |
| CN1CCN(c2ccc(CNC(=O)CN(c3cc(C(F)(F)F)ccc3Cl)S(=O)(=O)c3ccccc3)cc2)CC1 [IHVR-29022] | 30% | – | 49.5 µM | – | – |
| O=C(CN(c1cc(C(F)(F)F)ccc1Br)S(=O)(=O)c1ccccc1)NCc1ccncc1 [CCC-1002-2] | 30% | 90% | > 50 µM | – | inhibition at 1 µM ([1]; Concentration 1 μM): 30% |
| O=C(NCc1ccncc1)c1cc2ccccc2n1S(=O)(=O)c1ccccc1 [IHVR 13022-1] | 60% | 65% | > 50 µM | – | inhibition at 1 µM ([1]; Concentration 1 μM): 50% |
